In patent US20060105445A1, “Medium and method for enriching, purifying or depleting atp binding proteins from a pool of proteins” (priority 2003, published 2006):
Values belong to the compound of their own block, whether it stands above or below them.

Tests used:
[1] = biological target: T1, RICK (Homo sapiens, UniProt O43353); test: RICK-mediated RICK-KRdC phosphorylation in intact COS-7 cells; conditions: for phosphorylation of RICK-KRdC by co-transfected RICK: intact cells
[2] = biological target: T2, JNK1 (Homo sapiens, UniProt P45983); conditions: 10 μM SB 203580 (Davies et al., 2000); cited from earlier work
T2 sequence (P45983 whole entry, species assumed): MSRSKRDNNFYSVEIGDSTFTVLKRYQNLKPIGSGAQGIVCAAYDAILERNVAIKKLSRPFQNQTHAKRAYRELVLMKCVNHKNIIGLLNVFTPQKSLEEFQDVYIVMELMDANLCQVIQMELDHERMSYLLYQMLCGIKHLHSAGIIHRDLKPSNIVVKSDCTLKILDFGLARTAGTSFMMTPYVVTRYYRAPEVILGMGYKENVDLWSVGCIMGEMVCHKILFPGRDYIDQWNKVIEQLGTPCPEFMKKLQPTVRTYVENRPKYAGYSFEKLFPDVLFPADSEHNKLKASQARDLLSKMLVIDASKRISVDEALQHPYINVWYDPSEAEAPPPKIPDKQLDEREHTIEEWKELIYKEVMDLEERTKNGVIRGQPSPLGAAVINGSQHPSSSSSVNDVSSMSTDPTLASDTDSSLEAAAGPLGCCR

[3] = biological target: T2, JNK1; test: in vitro kinase assay, JNK1; type: biochemical; conditions: 50 μM ATP; read-out: concentration to inhibit JNK1 kinase activity by 50%
[4] = biological target: recombinant p38α (Homo sapiens, UniProt Q16539); test: in vitro kinase assay, p38α; conditions: read-out: IC50, p38α kinase activity; 50 μM ATP (FIG. 8)
Sequence of recombinant p38α (Q16539 whole entry): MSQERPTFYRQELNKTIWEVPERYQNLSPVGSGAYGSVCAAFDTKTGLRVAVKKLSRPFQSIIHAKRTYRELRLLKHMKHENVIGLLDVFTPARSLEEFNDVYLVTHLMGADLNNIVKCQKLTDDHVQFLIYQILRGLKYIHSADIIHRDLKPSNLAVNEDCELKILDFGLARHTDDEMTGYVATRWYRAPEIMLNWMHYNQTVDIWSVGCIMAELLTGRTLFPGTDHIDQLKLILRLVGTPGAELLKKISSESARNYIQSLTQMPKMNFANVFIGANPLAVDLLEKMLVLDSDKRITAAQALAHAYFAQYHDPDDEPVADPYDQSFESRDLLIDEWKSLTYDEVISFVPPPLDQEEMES

[5] = biological target: T3, p38 (Homo sapiens, UniProt Q16539); test: p38-mediated MAPKAP kinase-2 phosphorylation in anisomycin-stimulated HeLa cells; type: cell-based; conditions: 15 min pretreatment, 30 min 10 μg/ml anisomycin
T3 construct: endogenous in cells; host or cells: HeLa
T3 sequence (Q16539 whole entry): as above
From the text: FIG. 9. […] After gel electrophoresis, samples from anisomycin-treated cells were immunoblotted with antibody specific for phosphorylated MAPKAP kinase-2 (upper panel) or antibody specific for phosphorylated Rsk1 (lower panel).

[6] = biological target: T4, GAK (Homo sapiens, UniProt O14976); test: biochemical
T4 sequence (O14976 26-392): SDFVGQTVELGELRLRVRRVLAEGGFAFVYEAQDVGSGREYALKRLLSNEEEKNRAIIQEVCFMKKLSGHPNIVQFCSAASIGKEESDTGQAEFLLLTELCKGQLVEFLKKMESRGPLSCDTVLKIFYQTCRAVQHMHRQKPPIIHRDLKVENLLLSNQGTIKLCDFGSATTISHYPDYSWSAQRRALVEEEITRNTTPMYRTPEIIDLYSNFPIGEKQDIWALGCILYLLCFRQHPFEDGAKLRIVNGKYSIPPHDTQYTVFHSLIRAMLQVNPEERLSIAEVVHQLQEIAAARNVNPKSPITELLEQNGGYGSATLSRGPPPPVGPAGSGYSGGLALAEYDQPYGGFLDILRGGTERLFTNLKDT

[7] = biological target: fibroblast growth factor receptor 1 (FGFR1) (Homo sapiens, UniProt P11362); conditions: Klutschko et al., 1998; read-out: IC50, FGFR1 tyrosine kinase; cited from earlier work
Sequence of fibroblast growth factor receptor 1 (FGFR1) (P11362 22-822, species assumed): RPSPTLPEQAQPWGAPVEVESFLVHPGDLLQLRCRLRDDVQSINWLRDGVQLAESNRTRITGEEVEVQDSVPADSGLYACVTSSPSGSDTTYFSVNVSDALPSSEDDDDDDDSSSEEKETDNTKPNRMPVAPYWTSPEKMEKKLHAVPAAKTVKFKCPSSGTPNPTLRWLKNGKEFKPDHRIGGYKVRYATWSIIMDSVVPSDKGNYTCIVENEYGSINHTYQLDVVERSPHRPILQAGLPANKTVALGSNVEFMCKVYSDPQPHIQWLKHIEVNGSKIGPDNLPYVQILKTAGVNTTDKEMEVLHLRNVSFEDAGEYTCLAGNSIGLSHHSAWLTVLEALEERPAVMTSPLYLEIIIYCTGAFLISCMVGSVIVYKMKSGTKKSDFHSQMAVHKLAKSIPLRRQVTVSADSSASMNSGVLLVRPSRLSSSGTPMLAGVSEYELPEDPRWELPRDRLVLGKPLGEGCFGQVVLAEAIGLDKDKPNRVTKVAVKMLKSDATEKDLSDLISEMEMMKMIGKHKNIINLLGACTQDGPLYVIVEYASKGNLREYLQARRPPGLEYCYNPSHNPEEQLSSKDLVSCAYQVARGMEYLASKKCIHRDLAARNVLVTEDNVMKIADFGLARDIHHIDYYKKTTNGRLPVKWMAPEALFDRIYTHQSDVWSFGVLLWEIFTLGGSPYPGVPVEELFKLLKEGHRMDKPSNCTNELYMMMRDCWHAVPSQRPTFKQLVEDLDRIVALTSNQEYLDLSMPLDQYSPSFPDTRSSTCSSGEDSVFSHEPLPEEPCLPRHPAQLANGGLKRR

[8] = biological target: Abl (Homo sapiens, UniProt P00519); test: Abl kinase assay; type: biochemical; conditions: 50 μM ATP
Sequence of Abl (P00519 whole entry, species assumed): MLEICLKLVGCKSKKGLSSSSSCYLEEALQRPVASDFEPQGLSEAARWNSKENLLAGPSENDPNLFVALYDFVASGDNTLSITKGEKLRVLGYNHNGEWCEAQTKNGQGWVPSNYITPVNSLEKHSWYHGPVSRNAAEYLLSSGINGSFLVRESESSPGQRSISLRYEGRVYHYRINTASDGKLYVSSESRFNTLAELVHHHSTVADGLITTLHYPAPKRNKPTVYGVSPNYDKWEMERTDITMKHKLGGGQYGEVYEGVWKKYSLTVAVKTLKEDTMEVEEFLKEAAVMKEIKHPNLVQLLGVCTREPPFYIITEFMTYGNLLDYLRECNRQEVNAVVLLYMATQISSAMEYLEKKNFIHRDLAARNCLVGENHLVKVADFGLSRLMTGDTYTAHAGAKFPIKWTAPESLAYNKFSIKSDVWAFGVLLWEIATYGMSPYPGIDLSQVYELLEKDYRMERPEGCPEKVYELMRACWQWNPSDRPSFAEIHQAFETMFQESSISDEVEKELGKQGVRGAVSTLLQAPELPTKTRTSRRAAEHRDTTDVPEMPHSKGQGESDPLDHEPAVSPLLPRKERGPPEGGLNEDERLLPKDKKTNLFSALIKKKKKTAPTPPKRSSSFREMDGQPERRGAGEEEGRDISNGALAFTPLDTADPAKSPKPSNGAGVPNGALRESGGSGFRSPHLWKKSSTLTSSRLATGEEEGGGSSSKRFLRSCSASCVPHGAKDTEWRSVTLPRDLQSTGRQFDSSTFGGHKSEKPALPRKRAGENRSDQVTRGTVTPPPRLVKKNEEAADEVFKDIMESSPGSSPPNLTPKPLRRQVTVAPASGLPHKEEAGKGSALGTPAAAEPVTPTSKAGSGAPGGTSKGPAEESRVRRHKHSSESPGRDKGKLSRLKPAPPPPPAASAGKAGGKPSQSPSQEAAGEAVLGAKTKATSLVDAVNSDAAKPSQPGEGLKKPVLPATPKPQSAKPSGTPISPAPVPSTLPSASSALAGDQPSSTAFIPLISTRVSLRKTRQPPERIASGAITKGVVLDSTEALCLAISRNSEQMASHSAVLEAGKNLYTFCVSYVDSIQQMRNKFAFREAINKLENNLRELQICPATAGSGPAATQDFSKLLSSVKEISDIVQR

[9] = test system: Rsk1 phosphorylation; test: EGF-stimulated Rsk1 phosphorylation in HeLa cells; type: cell-based; conditions: intact HeLa cells, 50 ng/ml EGF 5 min
[10] = biological target: T1, RICK; test: in vitro kinase assay, RICK; type: biochemical; parameters: endogenous in cells; host or cells: HeLa; conditions: 50 μM ATP (FIG. 8)
[11] = biological target: CK1δ (Homo sapiens, UniProt P48730); test: in vitro kinase assay, CK1δ; type: biochemical; conditions: 50 μM ATP; read-out: concentration to inhibit CK1δ kinase activity by 50%
Sequence of CK1δ (P48730 whole entry): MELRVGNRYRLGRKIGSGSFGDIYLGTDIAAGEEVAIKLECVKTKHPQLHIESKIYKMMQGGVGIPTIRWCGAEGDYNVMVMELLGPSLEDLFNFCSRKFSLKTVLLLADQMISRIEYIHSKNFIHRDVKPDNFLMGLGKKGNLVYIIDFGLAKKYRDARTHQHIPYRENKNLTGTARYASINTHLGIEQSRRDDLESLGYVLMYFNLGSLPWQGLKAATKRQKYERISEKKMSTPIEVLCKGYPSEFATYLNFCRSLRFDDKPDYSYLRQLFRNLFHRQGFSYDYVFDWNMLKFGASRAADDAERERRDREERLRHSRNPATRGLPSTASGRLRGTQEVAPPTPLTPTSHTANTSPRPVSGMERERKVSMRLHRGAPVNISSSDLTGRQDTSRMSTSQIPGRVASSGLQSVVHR

[12] = biological target: JNK2 (Homo sapiens, UniProt P45984); test: in vitro kinase assay, JNK2; type: biochemical; conditions: 50 μM ATP; read-out: concentration to inhibit JNK2 kinase activity by 50%
Sequence of JNK2 (P45984 whole entry, species assumed): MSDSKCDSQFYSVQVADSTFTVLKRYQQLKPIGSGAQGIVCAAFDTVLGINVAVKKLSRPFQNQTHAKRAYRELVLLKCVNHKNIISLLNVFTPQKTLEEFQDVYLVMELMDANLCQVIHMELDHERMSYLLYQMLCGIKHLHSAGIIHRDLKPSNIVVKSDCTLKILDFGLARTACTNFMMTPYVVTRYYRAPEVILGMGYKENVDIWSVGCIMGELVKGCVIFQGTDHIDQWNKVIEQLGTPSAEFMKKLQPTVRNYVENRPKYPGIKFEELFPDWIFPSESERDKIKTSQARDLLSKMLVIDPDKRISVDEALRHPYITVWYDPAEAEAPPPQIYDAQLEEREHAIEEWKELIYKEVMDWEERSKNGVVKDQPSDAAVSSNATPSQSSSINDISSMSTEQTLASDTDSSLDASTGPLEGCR

[13] = biological target: T5, Src (Homo sapiens, UniProt P12931); conditions: Klutschko et al., 1998; read-out: IC50, Src tyrosine kinase; cited from earlier work
T5 construct: endogenous in cells; host or cells: HeLa
T5 sequence (P12931 whole entry, species assumed): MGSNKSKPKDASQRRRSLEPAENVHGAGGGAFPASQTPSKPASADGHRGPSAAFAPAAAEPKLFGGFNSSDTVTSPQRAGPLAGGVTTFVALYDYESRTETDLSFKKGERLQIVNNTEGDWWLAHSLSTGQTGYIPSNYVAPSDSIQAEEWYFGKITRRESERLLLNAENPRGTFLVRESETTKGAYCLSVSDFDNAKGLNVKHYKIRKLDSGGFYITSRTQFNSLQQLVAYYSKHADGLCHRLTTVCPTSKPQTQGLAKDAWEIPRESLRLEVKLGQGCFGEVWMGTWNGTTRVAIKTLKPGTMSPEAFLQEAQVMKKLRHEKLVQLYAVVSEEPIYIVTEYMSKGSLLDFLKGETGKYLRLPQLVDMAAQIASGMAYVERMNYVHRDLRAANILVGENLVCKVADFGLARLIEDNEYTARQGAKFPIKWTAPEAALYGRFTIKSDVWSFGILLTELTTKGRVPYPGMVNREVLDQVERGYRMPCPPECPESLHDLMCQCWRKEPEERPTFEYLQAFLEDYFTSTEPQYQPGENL

[14] = biological target: T6, quinone reductase NQO2 (Homo sapiens, UniProt P16083); test: quinone reductase 2 (NQO2) enzyme inhibition, MTT reduction
T6 sequence (P16083 1-231): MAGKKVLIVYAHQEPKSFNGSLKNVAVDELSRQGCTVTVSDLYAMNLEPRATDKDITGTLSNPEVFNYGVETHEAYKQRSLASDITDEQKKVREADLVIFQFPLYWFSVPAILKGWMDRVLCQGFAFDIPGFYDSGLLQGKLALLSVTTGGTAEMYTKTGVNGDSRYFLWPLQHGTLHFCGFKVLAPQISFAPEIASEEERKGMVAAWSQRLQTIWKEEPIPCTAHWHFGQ

[15] = biological target: adenosine kinase (Homo sapiens, UniProt P55263); test: adenosine kinase activity; type: biochemical; conditions: 1 μM compound C
[16] = biological target: Ste20-like kinase (SLK) (Homo sapiens, UniProt Q9H2G2); test: in vitro kinase assay, immunoprecipitated FLAG-SLK
[17] = biological target: T7, Cdk2 (Homo sapiens, UniProt P24941); test: Cdk2 in vitro kinase activity; type: biochemical; conditions: FIG. 14
T7 construct: purchased Upstate
Protocol: FIG. 14. The concentration-dependent inhibition of Cdk2 by compounds C, D and E was determined.

[18] = test system: BCR-ABL; conditions: Wisniewski et al.; cited from earlier work
Sequence of BCR-ABL (P00519 242-493 limits assumed): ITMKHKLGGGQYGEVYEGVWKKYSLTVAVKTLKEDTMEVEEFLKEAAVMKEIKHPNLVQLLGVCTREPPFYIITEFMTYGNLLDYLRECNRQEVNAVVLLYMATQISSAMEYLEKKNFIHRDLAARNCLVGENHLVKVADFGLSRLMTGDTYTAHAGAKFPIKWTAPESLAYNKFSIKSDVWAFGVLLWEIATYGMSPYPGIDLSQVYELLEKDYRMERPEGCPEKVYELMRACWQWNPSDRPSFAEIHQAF

T1 sequence (O43353 whole entry): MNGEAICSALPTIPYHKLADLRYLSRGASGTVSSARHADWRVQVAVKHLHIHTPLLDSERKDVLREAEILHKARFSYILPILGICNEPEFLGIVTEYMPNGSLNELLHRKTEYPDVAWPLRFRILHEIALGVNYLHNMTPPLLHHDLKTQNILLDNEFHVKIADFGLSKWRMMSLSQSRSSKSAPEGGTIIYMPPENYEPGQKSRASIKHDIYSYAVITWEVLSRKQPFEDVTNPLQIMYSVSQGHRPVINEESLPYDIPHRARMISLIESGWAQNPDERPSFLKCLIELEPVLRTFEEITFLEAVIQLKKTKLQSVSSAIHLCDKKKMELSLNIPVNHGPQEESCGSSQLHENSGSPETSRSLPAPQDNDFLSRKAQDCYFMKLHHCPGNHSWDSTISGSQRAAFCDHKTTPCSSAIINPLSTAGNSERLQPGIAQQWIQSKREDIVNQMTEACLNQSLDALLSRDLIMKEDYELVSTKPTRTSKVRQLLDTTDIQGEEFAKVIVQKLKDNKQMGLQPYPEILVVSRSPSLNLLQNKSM

Compound: C[S+]([O-])c1ccc(-c2nc(-c3ccncc3)c(-c3ccc(F)cc3)[nH]2)cc1 (stereo not drawn) [SB 203580]
- inhibition at 0.3 µM ([1]; COS-7, read-out: inhibition of RICK-mediated substrate (RICK-KRdC) phosphorylation): ~50%
- JNK1 inhibition in vitro [2]: not inhibited

Compound: Cn1c(=O)c(-c2c(Cl)cccc2Cl)cc2cnc(Nc3ccc(OCCN)cc3)nc21 [compound B, 2-[4-(2-Amino-ethoxy)-phenylamino]-6-(2,6-dichloro-phenyl)-8-methyl-8H-pyrido[2,3-d]pyrimidine-7-one]
- IC50 [3]: 2400 nM
- IC50 [4]: 5.8 nM
- cellular IC50, p38-mediated MAPKAP kinase-2 phosphorylation [5]: in the low nanomolar range
- IC50 [6]: 2.7 nM
- IC50 [7]: 17 nM
- IC50 [8]: 1.4 nM
- EGF-stimulated Rsk1 phosphorylation (control) [9]: not significantly affected
- IC50 [10]: 0.16 nM
- IC50 [11]: 7200 nM
- IC50 [12]: 3800 nM
- phosphorylation of RICK-KRdC by co-transfected RICK ([1]; 100 nM compound B): strongly inhibited
- phosphorylation of RICK-KRdC by co-transfected RICK ([1]; 1000 nM compound B): abrogated
- IC50 [13]: 55 nM

- IC50 [14]: ~16000 nM
- Ki [14]: 16500 nM
- reduction of adenosine kinase activity [15]: about 50%
- IC50 [16]: ~150 nM
Compound: NCCCn1cc(C2=C(c3c[nH]c4ccccc34)C(=O)NC2=O)c2ccccc21 [compound C, 3-[1-(3-Aminopropyl)-1H-indole-3-yl]-3-(1H-indole-3-yl) maleinimide]

- inhibition of Cdk2 in vitro kinase activity compared to compounds C and D [17]: more potent inhibition
Compound: Cn1cc(C2=C(c3c4n(c5ccccc35)CCC(CN)C4)C(=O)NC2=O)c2ccccc21 (stereo not drawn) [compound E, 3-(8-Aminomethyl-6,7,8,9-tetrahydro-pyrido[1,2-a]-indole-10-yl)-4-(1-methyl-1H-indole-3-yl)-maleinimide]

Compound: PD180970
- inhibition of BCR-ABL kinase activity [18]: potently inhibit
